6 compounds from BindingDB's records for doi:10.1074/jbc.M111.290619 (Washington University, 2011) can be followed below.

Molecules are shown by their SMILES. Several values for one entry are separate records, joined by “and”; a condition that tells them apart may be missing. Equal values may be shown once.

For experiment [1], the target named is T1, Phosphoethanolamine N-methyltransferase 1 (Caenorhabditis elegans, UniProt Q86NB3).
T1 sequence (Q86NB3 whole entry): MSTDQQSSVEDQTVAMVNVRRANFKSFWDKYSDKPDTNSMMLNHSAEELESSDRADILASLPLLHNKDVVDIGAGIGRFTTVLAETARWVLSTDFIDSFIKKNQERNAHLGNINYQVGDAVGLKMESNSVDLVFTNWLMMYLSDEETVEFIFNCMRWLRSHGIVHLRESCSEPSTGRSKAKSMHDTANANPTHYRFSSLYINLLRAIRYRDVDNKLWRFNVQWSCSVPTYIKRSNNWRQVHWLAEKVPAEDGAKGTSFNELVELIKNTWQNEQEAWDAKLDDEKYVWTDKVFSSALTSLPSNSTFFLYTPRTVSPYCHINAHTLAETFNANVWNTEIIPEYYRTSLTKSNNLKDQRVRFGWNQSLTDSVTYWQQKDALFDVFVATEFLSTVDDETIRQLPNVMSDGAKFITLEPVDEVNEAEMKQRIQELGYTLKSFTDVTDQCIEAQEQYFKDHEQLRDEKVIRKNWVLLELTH
The experiment is described as follows: Radiochemical Assay. The conditions noted are these: pH 8; 25 °C. The source says: (§1) A radiochemical assay was used to measure enzymatic activity.

For experiment [2], the target named is T2, Phosphoethanolamine N-methyltransferase 2 (Caenorhabditis elegans, UniProt Q22993). The experiment is described as follows: Radiochemical Assay. To be noted: pH 8; 25 °C.
Excerpt: as §1

Experiment [3] deals with T1, Phosphoethanolamine N-methyltransferase 1. Briefly: Calorimetric (ITC) Assay. To be noted: pH 7.5. Here is the method: (§2) For standard ITC analysis of ligand binding, proteins were dialyzed overnight in 25 mm Hepes (pH 7.5), 100 mm NaCl, 5 mm -mercaptoethanol, and 5% glycerol at 4 °C. Ligands (i.e. AdoMet, AdoCys, pEA, and pCho) were prepared in the same buffer. AdoMet and AdoCys concentrations were determined spectrophotometrically (A260 nm; = 15,400 m 1 cm 1) (19). ITC experiments were performed using a VP-ITC calorimeter (Microcal, Inc.). Injections (10 ul) of ligand were added to a sample solution containing protein using a computer-controlled 250-ul microsyringe at intervals of 5 6 min.

Experiment [4] deals with T2, Phosphoethanolamine N-methyltransferase 2. Briefly: Calorimetric (ITC) Assay. The conditions noted are these: pH 7.5. Here is the method: as §2

T2 sequence (Q22993 whole entry): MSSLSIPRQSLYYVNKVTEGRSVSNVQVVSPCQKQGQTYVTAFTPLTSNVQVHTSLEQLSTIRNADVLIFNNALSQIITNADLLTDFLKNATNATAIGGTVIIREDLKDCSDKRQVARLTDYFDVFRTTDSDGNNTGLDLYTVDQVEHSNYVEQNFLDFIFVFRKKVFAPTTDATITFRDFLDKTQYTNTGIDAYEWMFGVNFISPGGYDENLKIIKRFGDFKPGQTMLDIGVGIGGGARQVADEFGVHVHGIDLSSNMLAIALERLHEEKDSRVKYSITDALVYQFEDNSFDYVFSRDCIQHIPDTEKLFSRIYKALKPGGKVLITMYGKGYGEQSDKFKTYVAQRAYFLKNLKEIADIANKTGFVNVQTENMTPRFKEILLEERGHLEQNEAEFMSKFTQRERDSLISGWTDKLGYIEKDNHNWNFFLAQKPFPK

What is called IC50 is the point on the concentration scale where inhibition reaches its midpoint. The low end stands for greater potency in that assay, the high end for weaker potency in that assay. Regarding `Nc1c2c(nc3ccccc13)CCCC2`, the figures for the IC50 in experiment [1] and in experiment [2] were 23400 µM and 3500 µM, respectively.

Usually Kd stands for the constant that tells how readily two partners part at equilibrium. The low end stands for higher affinity, the high end for lower affinity. Regarding `C[S+](CC[C@H](N)C(=O)[O-])C[C@H]1O[C@@H](n2cnc3c(N)ncnc32)[C@H](O)[C@@H]1O` (stereo partly drawn) [(2S)-2-amino-4-({[(2S,3S,4R,5R)-5-(6-amino-9H-purin-9-yl)-3,4-dihydroxyoxolan-2-yl]methyl}(methyl)sulfanylium)butanoate], the Kd in experiment [3] (4 °C) was 47.2 µM and 19.1 µM and 10.7 µM and 5.8 µM; in experiment [3] (5 °C), 6.1 µM; in experiment [3] (10 °C), 8.2 µM; in experiment [3] (15 °C), 11.4 µM; in experiment [3] (20 °C), 16.6 µM; in experiment [3] (25 °C), 26.7 µM.

Turning to `Nc1ncnc2c1ncn2[C@H]1O[C@@H](CSCC[C@@H](N)C(=O)O)[C@H](O)[C@@H]1O` [AdoCys], the Kd in experiment [3] (4 °C) was 2.9 µM and 2.2 µM and 1.3 µM and 0.9 µM; in experiment [3] (5 °C) it was 0.7 µM; in experiment [3] (10 °C), 0.8 µM; in experiment [3] (15 °C), 1.1 µM; in experiment [3] (20 °C), 1.6 µM; in experiment [3] (25 °C), 2.5 µM. The Kd was 8.6 µM and 6 µM and 9.3 µM and 6.1 µM in experiment [4] (4 °C); 2 µM in experiment [4] (5 °C); 2.5 µM in experiment [4] (10 °C); 3 µM in experiment [4] (15 °C); 4.2 µM in experiment [4] (20 °C); 5.4 µM in experiment [4] (25 °C).

Turning to `CCN(CC)Cc1cc(Nc2ccnc3cc(Cl)ccc23)ccc1O` [Amodiaquin], the IC50 came to 3400 µM in experiment [1] and 3100 µM in experiment [2].

On to `Nc1ncnc2c1ncn2[C@@H]1O[C@H](C[C@@H](N)CC[C@H](N)C(=O)O)[C@@H](O)[C@H]1O` [Sinefungin], for which the IC50 was found to be 33.8 µM in experiment [1] and 91.5 µM in experiment [2].

On to `CCCCCCCCCCCCCCCCOP(=O)([O-])OCC[N+](C)(C)C` [n-hexadecylphosphocholine], for which the IC50 in experiment [1] came out at 125 µM; in experiment [2] it was 12.5 µM.
